Experimental data from ChEMBL document CHEMBL1201862, “PubChem BioAssay data set” (2004).
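How tested: cells in 96-well plates exposed to compound for 48 hours at five concentrations. The concentration for 50% growth inhibition is given as GI50.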 Active and inactive are the calls of the source. No stated cut-off is given here; in the data, active = GI50 up to about 1.1 µM and inactive = higher.

Key:
Assay in all cases: inhibition of tumour cell growth, NCI panel, 48 h
T47D = tested on: T47D
SF-295 = tested on: SF-295
SNB-19 = tested on: SNB-19
Malme-3M = tested on: Malme-3M
HCT-116 = tested on: HCT-116
TK-10 = tested on: TK-10
HCC 2998 = tested on: HCC 2998
MOLT-4 = tested on: MOLT-4
SR = tested on: SR
SF-539 = tested on: SF-539
NCI/ADR-RES = tested on: NCI/ADR-RES
SK-MEL-28 = tested on: SK-MEL-28
U-251 = tested on: U-251
HL-60 = tested on: HL-60
SK-MEL-5 = tested on: SK-MEL-5
MDA-MB-231 = tested on: MDA-MB-231
DU-145 = tested on: DU-145
OVCAR-4 = tested on: OVCAR-4
UACC-257 = tested on: UACC-257
EKVX = tested on: EKVX

Measured: GI50

NS(=O)(=O)c1nn2c(Br)c(-c3ccccc3)nc2s1
inactive: T47D 3.66 µM | SF-295 8.97 µM | SNB-19 9.46 µM | Malme-3M 3.96 µM | HCT-116 2.04 µM | TK-10 6.37 µM | HCC 2998 4.92 µM | MOLT-4 1.61 µM | SR 1.88 µM | SF-539 1.96 µM | NCI/ADR-RES 3.84 µM | SK-MEL-28 9.06 µM | U-251 4.59 µM | HL-60 3.66 µM | SK-MEL-5 2.42 µM | MDA-MB-231 4.47 µM | DU-145 3.08 µM | OVCAR-4 10.6 µM | UACC-257 5.16 µM | EKVX 15.8 µM

COC(O)C(=O)c1c2c(cc3c1CC1(Cc4cc5c(cc4C1)CCC5)C3)CCC2 (stereo not given)
inactive: T47D 21.9 µM | SF-295 19.7 µM | SNB-19 18.1 µM | Malme-3M 16.3 µM | HCT-116 8.73 µM | TK-10 17.7 µM | HCC 2998 23.6 µM | MOLT-4 15.8 µM | SR 3.99 µM | SF-539 17.3 µM | NCI/ADR-RES 17.3 µM | SK-MEL-28 20 µM | U-251 11.6 µM | HL-60 23.2 µM | SK-MEL-5 17.3 µM | MDA-MB-231 14.1 µM | DU-145 19.5 µM | OVCAR-4 18.5 µM | UACC-257 18.7 µM | EKVX 22.2 µM

Cc1ccc2c(c1)C(=O)C(Cc1ccccc1C(=O)O)C2 (stereo not given)
inactive: T47D > 100 µM | SF-295 > 100 µM | SNB-19 > 100 µM | Malme-3M > 100 µM | HCT-116 > 100 µM | TK-10 > 100 µM | HCC 2998 > 100 µM | MOLT-4 > 100 µM | SR > 100 µM | SF-539 > 100 µM | NCI/ADR-RES > 100 µM | SK-MEL-28 > 100 µM | U-251 > 100 µM | HL-60 > 100 µM | SK-MEL-5 > 100 µM | MDA-MB-231 > 100 µM | DU-145 > 100 µM | OVCAR-4 > 100 µM | UACC-257 > 100 µM | EKVX > 100 µM

CC(C)[C@@H]1CC[C@@H](C)C[C@H]1OC(=O)/C=C1\C(C(=O)O[C@@H]2C[C@H](C)CC[C@H]2C(C)C)[C@H]2C=C[C@@H]1O2 (stereo not given in full)
inactive: T47D 75.2 µM | SF-295 25.2 µM | SNB-19 > 100 µM | Malme-3M > 100 µM | HCT-116 49.9 µM | TK-10 > 100 µM | HCC 2998 29.1 µM | MOLT-4 35.8 µM | SR 43 µM | SF-539 > 100 µM | NCI/ADR-RES > 100 µM | SK-MEL-28 > 100 µM | U-251 51.4 µM | HL-60 22.9 µM | SK-MEL-5 40.4 µM | MDA-MB-231 87.5 µM | DU-145 57.9 µM | OVCAR-4 > 100 µM | UACC-257 35 µM | EKVX 63.4 µM

COC1C(=O)N(SC)C1c1ccccc1Cl (stereo not given)
inactive: T47D 27.4 µM | SF-295 > 100 µM | SNB-19 > 100 µM | Malme-3M 22.6 µM | HCT-116 11.3 µM | TK-10 > 100 µM | HCC 2998 14.7 µM | MOLT-4 9.62 µM | SR 18.6 µM | SF-539 19.6 µM | NCI/ADR-RES 68.1 µM | SK-MEL-28 > 100 µM | U-251 52.4 µM | HL-60 16.7 µM | SK-MEL-5 95.5 µM | MDA-MB-231 35.6 µM | DU-145 > 100 µM | OVCAR-4 16.7 µM | UACC-257 > 100 µM | EKVX 24.4 µM
